Test results reported in patent US20230416299A1, “COMPOUND AND METHOD FOR THE TREATMENT AND DIAGNOSIS OF NEURODEGENERATIVE CONDITIONS” (Swansea University, priority 2013, published 2023).

Tests used:
[1] = molecular target: T1, Lxrα (Homo sapiens, UniProt Q13133); test: Lxr-responsive luciferase reporter assay (Lxre + Lxrα) in SN4741 neural cells; type: cell-based, mouse; details: 10 μM, 24 h
T1 construct: expressed in transfected cells; host or cells: SN4741 mouse neuronal cell line
T1 sequence (Q13133 1-447): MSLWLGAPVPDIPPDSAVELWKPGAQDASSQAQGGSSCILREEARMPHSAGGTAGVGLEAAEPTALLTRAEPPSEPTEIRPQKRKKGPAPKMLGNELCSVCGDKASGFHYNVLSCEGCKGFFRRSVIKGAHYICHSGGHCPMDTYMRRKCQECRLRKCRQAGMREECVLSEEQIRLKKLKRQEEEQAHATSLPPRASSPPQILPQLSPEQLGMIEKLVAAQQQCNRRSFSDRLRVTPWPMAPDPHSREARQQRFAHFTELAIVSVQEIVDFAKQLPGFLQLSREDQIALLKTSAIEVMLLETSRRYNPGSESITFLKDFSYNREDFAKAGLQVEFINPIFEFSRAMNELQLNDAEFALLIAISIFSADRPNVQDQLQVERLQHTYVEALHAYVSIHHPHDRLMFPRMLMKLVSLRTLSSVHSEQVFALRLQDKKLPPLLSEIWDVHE
Excerpt: (§1) Luciferase Reporter Assay.

[2] = molecular target: T2, Lxrβ (Homo sapiens, UniProt P55055); test: Lxr-responsive luciferase reporter assay (Lxre + Lxrβ) in SN4741 neural cells; type: cell-based, mouse
T2 construct: expressed in transfected cells; host or cells: SN4741 mouse neuronal cell line
T2 sequence (P55055 1-460): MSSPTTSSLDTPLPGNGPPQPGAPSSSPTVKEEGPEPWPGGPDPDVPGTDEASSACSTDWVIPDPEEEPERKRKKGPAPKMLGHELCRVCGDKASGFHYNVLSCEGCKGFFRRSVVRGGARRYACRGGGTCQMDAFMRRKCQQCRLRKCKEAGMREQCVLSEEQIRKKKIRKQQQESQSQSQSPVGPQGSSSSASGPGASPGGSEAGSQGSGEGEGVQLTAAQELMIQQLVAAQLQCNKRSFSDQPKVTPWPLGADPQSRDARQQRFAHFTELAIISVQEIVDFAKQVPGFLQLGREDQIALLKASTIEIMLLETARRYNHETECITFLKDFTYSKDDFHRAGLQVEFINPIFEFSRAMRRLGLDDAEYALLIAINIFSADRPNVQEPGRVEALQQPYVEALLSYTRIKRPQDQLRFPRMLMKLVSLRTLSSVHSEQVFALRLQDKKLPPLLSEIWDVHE
Excerpt: as §1

[3] = molecular target: T3, Lxrβ-LBD (Homo sapiens, UniProt P55055); test: LanthaScreen TR-FRET Lxrβ coactivator assay; type: binding
T3 construct: purchased Invitrogen
T3 sequence (P55055 222-460 limits assumed): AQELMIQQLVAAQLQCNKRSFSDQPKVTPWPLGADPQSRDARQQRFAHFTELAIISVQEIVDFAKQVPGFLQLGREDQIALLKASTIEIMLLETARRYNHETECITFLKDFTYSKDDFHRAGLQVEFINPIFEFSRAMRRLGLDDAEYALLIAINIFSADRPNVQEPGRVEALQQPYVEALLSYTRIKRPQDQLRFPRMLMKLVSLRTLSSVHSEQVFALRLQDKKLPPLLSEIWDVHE
Excerpt: Lxrβ Ligand Binding Assay. For Lxrβ ligand binding activity measurement, the applicants used the LANTHASCREEN™ TR-FRET Lxrβ Coactivator Assay (Invitrogen). The assay uses a terbium (Tb)-labeled anti-GST antibody, a fluorescein-labeled coactivator peptide and the Lxrβ-LBD tagged with glutathione-S-transferase (GST). Binding of the agonist/ligand to Lxrβ-LBD causes a conformational change that result in an increase in the affinity of the Lxrβ for the coactivator peptide. The close proximity of the fluorescently labeled coactivator peptide to the Tb-labeled antibody causes an increase in the TR-FRET signal intensity. The TR-FRET ratio of 520/495 was calculated using a Victor multi label reader with an excitation wavelength of 340 nm and emission wavelengths of 520 nm and 495 nm. The activational capacity of potential ligands was tested in a […] polypropylene plate, following the manufacturer's protocol.

[4] = test system: Abca1, Abcg1 and Srebf1 transcript levels; test: Quantitative PCR of Lxr target genes in SN4741 cells; type: cell-based, mouse; details: SN4741 cells treated 3 h
Procedure: (§2) Quantitative PCR. Total RNA was extracted from SN4741 cells and zebrafish treated with the compounds of interest using the RNeasy Mini Kit (Qiagen), 1 μg was treated with RQ1 RNase-free DNase (Promega) and reverse transcribed using Superscript II Reverse Transcriptase (Invitrogen) and random primers (Invitrogen) (RT+ reaction). Parallel reactions without reverse transcriptase enzyme were done as a control (RT− reaction), and Sybergreen real-time quantitative PCR assays were performed. Expression levels were obtained by normalization with the value of the housekeeping gene encoding actin obtained for every sample in parallel assays.

[5] = test system: Islet-1:GFP transgenic zebrafish embryos; type: in vivo; details: 10 μM in medium
Procedure: as §2
Zebrafish Strain and Mainrenance Zebrafish were raised on a 14/10 h day/night cycle and were kept at 28.5° C. Islet-1:GFP transgenic embryos were obtained via natural spawning and staged in hours or days post fertilization (hpf and dpf) according to Kimmel et al). Embryos older than 24 hpf were treated with 0.03% phenylthiourea (PTU) to inhibit pigmentation. MO injections were performed using splice site specific zebrafish 1xr MO. MO injected embryos were immediately dechorionated and transferred to a 96 well plate and exposed to dimethyl sulfoxide (DMSO) treated or ligand treated medium.
Compound Exposure. Islet-1:GFP embryos were collected by natural mating and immediately (at 1 cell stage) dechorionated and transferred to a 96 well plate. Each of the compounds tested were obtained as 10 mM stock and diluted in embryo medium to a final concentration of 10 μM, and 200 μL was added to each well. DMSO or propan-2-ol treated embryo medium was taken as control. Ligand solutions were replaced every 12 h with fresh ligand solution prepared in PTU treated embryo medium. Embryos were collected at 48 hpf, fixed for 4 h at room temperature with 4% paraformaldehyde and then washed and kept in PBST. Immunocytochemistry was performed using an anti-GFP antibody and fluorescence was viewed and photographed using a Zeiss Axioplan compound microscope and a Zeiss Axiocam digital camera.

[6] = test system: mouse E11.5 brain primary cultures; test: Mouse E11.5 brain primary cultures (Islet1+, active caspase 3+, BrdU, Nkx6.1 counts); type: cell-based
Procedure: Primary Brain Cultures. Brains from E11.5 mice were manually dissected, plated on poly-D-lysine (150,000 cells/cm2) and grown in serum-free N2 media consisting of 1:1 mixture of F12 and DMEM with 10 ng/mL insulin, 100 μg/mL apo-transferrin, 100 μM putrescine, 20 nM progesterone, 30 nM selenium, 6 mg/mL glucose, and 1 mg/mL BSA. Cells were treated for 3 days in vitro (DIV) with the compounds of interest, fixed with 4% PFA and processed for staining using appropriate antibodies.
For BrdU analysis, cells were treated with BrdU one hour after plating and media was replaced with fresh medium after 16 h. After a further 2 days in culture, cells were treated for 30 min with 2N HCl and then immunocytochemistry was performed to evaluate the number of double BrdU+;Islet1+ cells (a measure of motor neuron neurogenesis). Hoechst staining was performed by permeabilizing cells with a 0.3% Triton-X 100/PBS solution for 5 min followed by incubation with Hoechst 33258 (Sigma) for 10 min.
Antibodies and Detection Procedures. Cells were fixed in 4% PFA, washed in PBS and blocked in 5% normal goat serum/PBS for 1 h at room temperature. Primary antibodies were diluted in PBS (pH 7.4), 0.3% Triton X-100, 1% BSA and incubations were carried out overnight at +4° C. or at room temperature for 2 h. The antibodies used were anti-: BrdU (1:400; Abeam), Islet-1 (1:100; Developmental Studies Hybridoma Bank), cleaved caspase-3 (Asp175) (1:100; Cell Signaling Technology), tyrosine hydroxylase (TH;1:1000; Pel-Freeze) GABA (1:1,000; Sigma), Brn3a (1:250; Millipore), Nkx6.1 (1:200; Novus Biologicals), choline acetyltransferase (ChAT; 1:500; Millipore) and appropriate secondary antibodies (Jackson ImmunoResearch or Alexa). Cells positive for the corresponding marker were counted directly at the microscope at a magnification of 20 x. Cells were counted in every well, in eight consecutive fields (going from one side of the well to the other, passing through the center), in three different wells per experiment and in three different experiments per condition. Random pictures of the wells were taken for every condition to document the result, and representative pictures were subsequently selected to represent the quantitative data. Photos were acquired with a Zeiss Axioplan microscope and a Hamamatsu camera C4742-95 using the Openlab software.

[7] = molecular target: T4, Fxr (Homo sapiens, UniProt Q96RI1); test: Fxr-responsive luciferase reporter assay (Fxre + Fxr) in SN4741 neural cells; type: cell-based, mouse; details: 24 h
T4 construct: expressed in transfected cells; host or cells: SN4741 mouse neuronal cell line
T4 sequence (Q96RI1 1-486): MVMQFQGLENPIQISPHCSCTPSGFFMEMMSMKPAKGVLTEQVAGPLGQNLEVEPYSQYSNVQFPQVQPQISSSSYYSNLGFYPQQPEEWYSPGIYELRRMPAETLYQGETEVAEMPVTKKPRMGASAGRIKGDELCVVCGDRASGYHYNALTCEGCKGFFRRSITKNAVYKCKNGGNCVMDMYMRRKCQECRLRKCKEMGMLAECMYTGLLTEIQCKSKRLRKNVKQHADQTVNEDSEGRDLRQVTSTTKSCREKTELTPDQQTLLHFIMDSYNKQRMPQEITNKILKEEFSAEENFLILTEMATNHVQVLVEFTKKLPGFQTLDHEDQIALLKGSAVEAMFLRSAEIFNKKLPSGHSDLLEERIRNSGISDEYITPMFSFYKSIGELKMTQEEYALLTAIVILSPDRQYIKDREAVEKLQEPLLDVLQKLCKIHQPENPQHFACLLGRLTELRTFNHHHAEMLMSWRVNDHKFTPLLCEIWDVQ
Procedure: (§3) LC-ESI-MS on the LTQ-Orbitrap LC-ESI-MS and LC-ESI-MSn was performed using an Ultimate 3000 HPLC system (Dionex, Surrey, UK) linked to the ESI source of a LTQ-Orbitrap XL or LTQ-Orbitrap Velos (Thermo Fisher, San Jose, CA) mass spectrometer. Luciferase Reporter Assay. The ability of oxysterols and their acidic metabolites to activate several nuclear receptors i.e. Lxrα and β, Fxr, Vdr, Nurrl was tested in luciferase assays. Transient transfection studies were performed in the mouse neuronal cell line SN4741. This cell line was selected as the oxysterols and acidic metabolites tested were initially identified in CSF. Cells were plated in 24-well plates (5×10^5 cells/well) 24 hr before transfection and transfected with 1 μg of plasmid DNA/well complexed with 2 μL of Lipofectamine 2000 (Invitrogen). Cells were transfected with 400 ng of a Lxr-, Fxr-, Vdr- or Nurrl−responsive luciferase reporter construct, and 200 ng of Lxrα, Lxrβ, Fxr, Vdr or Nurrl. A reporter gene expressing the Renilla luciferase (pRL-TK, Promega) was co-transfected in all experiments as an internal control for normalization of transfection efficiency. After a 12 h incubation, the lipid/DNA mix was replaced with fresh 2.5% serum medium containing vehicle or appropriate ligand (10 μM), as specified in each experiment. […]

[8] = test system: Nur-related factor 1 (Nurrl)/retinoid X receptor (Rxr) heterodimers; details: SN4741 cells, 10 μM
Procedure: as §3

SMILES: CC(CCC[C@@H](C)[C@H]1CC[C@H]2[C@@H]3[C@@H](O)C=C4C[C@@H](O)CC[C@]4(C)[C@H]3CC[C@]12C)C(=O)O (stereo partly drawn) [3β,7β-diHCA, 3β,7β-dihydroxycholest-5-en-26-oic acid]
- Lxrα activation, luciferase activity [1]: have the ability to activate both Lxrs
- Lxrβ activation, luciferase activity ([2]; SN4741 cells, 10 μM, 24 h): have the ability to activate both Lxrs
- Lxrβ activational capacity in combination with 22R-HC ([2]; acid 10 μM + 22R-HC 10 μM): No additive effect was observed
- Competitor concentration with significant difference (p<0.05) from 10 μM 3β,7α-diHCA alone in TR-FRET Lxrβ coactivator assay ([3]; added to 10 μM 3β,7α-diHCA): ≥ 2 µM
- Competition with 3β,7α-diHCA in TR-FRET Lxrβ coactivator assay ([3]; increasing concentrations with 3β,7α-diHCA at its most potent concentration): the effect of 3β,7α-diHCA was reduced to that of the latter acids
- Abca1, Abcg1 and Srebf1 transcript levels [4]: induced transcription, but to a lesser extent
- Toxicity to zebrafish embryos [5]: deleterious toxic effect which impaired the survival of the fish
- Concentration at which toxicity is initiated (active caspase-3+ cells) ([6]; mouse, E11.5 mouse brain primary cultures, 3 days): 1000 nM
- Number of Islet1+ cells ([6]; wild type cultures, 3 DIV): caused the loss of Islet1+ cells in the cultures
- Number of active caspase-3+ cells ([6]; wt cultures, 10 μM 3β,7α-diHCA, 3βH,7O-CA, 25-HC, low concentrations of 3β,7β-diHCA, 3β-HCA): increased the number of active caspase-3+ cells

SMILES: C[C@H](CCC(=O)O)[C@H]1CC[C@H]2[C@@H]3CC=C4C[C@@H](O)CC[C@]4(C)[C@H]3CC[C@]12C [3βH-Δ^5-BA, 3β-hydroxychol-5-en-24-oic acid]
- Fxr activation, luciferase activity [7]: also activated Fxr, but was less potent than CDCA

SMILES: CC1=C(/C=C/C(C)=C\C=C\C(C)=C\C(=O)O)C(C)(C)CCC1 [9-cis-RA, 9-cis-retinoic acid]
- Activation of DR5 element luciferase reporter [8]: activated this reporter
